Measured values reported in patent publication US20250082633A1, “COMPOUNDS AND METHODS FOR MODULATING SPLICING” (REMIX THERAPEUTICS INC., priority 2021, published 2025).
Counter-ions that a name gives are not always drawn.

Experiments:
[1] = system: HiBiT-tagged MYB protein in K562 cells; assay: HiBit protein abundance assay, MYB; format: cell-based, human; conditions: K562 HiBiT-modified cells, 24 hours, luminescence
Experimental: (§1) Compounds described herein were used to screen for effects on quantitative protein abundance using a HiBit assay system (Promega). Quantitative protein abundance was determined by measuring the protein levels of HiBit-tagged protein targets expressed in cell culture via luminescence using the Nano-Glo HiBiT Lytic Detection System, which uses a split complementation assay format to reconstitute NanoBiT enzyme to generate a luminescent signal. A protein abundance assay was developed such that endogenous protein targets could be modified with the HiBiT peptide tag and their abundance could be assessed after compound treatment. Briefly, K562 cell lines containing a HiBiT-modification were treated with various compounds described herein (e.g., compounds of Formulas (I), (II), or (III)). After treatment for 24 hours, the protein abundance of a specific target was determined by measuring luminescence. • Promega Nano-Glo HiBiT Lytic Detection System (cat #N3030) • Corning 384-well TC-treated microplates (cat #3570) • Synthego Engineered Cells Knock-In Clones [table] Cells were maintained in IMDM with 10% FBS. Before the assay, cells were diluted with phenolphthalein-free growth media (IMDM+1% FBS media) and were seeded in a 384-well plate at a density of 10000 cells/well (for each cell line listed in Table 6). Each compound was prepared as a 10-point 3-fold serial dilution in DMSO with the top dose at a final concentration of 10 μM in the well. Unmodified K562 cells were added at the previously specified density with DMSO to serve as an assay baseline and positive control (PC) and DMSO only with the respective modified cell lines was added to the negative control (NC) columns. Final DMSO concentration was kept at or below 0.25%. Treated cell plates were placed in an incubator at 37° C. with 5% CO2 for 24 hours. After 24 hours, 25 μL of Complete HiBit Lytic reagent was added to each well at room temperature (e.g. one plate requiring 10 mL Lytic Buffer, 100 μL LgBiT Protein, 200 μL Lytic Substrate), shaken for 5 minutes at 600 RPM, then left to sit for 10 minutes for signal to stabilize before reading on a Spark Cyto plate reader (Tecan) with a 500 ms measurement time. To determine compound effects on protein abundance of each target in Table 6, the percent response for each respective cell line was calculated at each compound concentration as follows: For the normalized response at each concentration, a four-parameter logistical regression was fit to the data and the response was interpolated at the 50% value to determine a concentration for protein abundance at 50% (IC50) the untreated control.

Target C = assay: HiBit protein abundance assay, Target C; format: cell-based; conditions: Homo sapiens; K562 HiBiT-modified cells, 24 hours, luminescence
Experimental: as §1, with “Clones” for “Clones [table]”

Row | IC50 [1] [nM] | IC50 (Target C) [nM] | Structure (SMILES)
1 | 100 to 1000 | < 100 | Cc1cn2cc(-c3cc(F)c4nn(C5CCNCC5)cc4c3)cc(Cl)c2n1 [Compound 127, 5-(8-chloro-2-methylimidazo[1,2-a]pyridin-6-yl)-7-fluoro-2-(piperidin-4-yl)-2H-indazole hydrochloride salt]
2 | 100 to 1000 | 100 to 1000 | Cn1cc2cc(-c3ccc4nn(C5CCNCC5)cc4n3)c(O)c(F)c2n1 [Compound 107, 7-fluoro-2-methyl-5-[2-(4-piperidyl)pyrazolo [4,3-b]pyridin-5-yl]indazol-6-ol]
3 | 100 to 1000 | < 100 | Cc1cn2cc(-c3cc(F)c4nn(C5CCNCC5)cc4c3)cc(C)c2n1 [Compound 125, 5-(2,8-dimethylimidazo[1,2-a]pyridin-6-yl)-7-fluoro-2-(4-piperidyl)indazole]
4 | 1000 to 10000 | 1000 to 10000 | Fc1cc(-c2ccc3ccncc3c2)cc2cn(C3CCNCC3)nc12 [Compound 158, 7-[7-fluoro-2-(4-piperidyl)indazol-5-yl]isoquinoline]
5 | 1000 to 10000 | 1000 to 10000 | Cc1cc(-n2cc3cc(C4CCNCC4)cc(F)c3n2)cc2cn(C)nc12 [Compound 115, 2-(2,7-dimethylindazol-5-yl)-7-fluoro-5-(4-piperidyl)indazole]
6 | 100 to 1000 | 100 to 1000 | Cn1cc2cc(-c3ccc4nn(C5CCNCC5)cc4c3)cc(F)c2n1 [Compound 105, 7-fluoro-2-methyl-5-[2-(4-piperidyl)indazol-5-yl]indazole]
7 | 100 to 1000 | 100 to 1000 | Cc1cn2nc(-c3cc(F)c4nn([C@@H]5CCNC[C@H]5F)cc4c3)cc(C)c2n1 [Compound 168, 6-(7-fluoro-2-((3R,4R)-3-fluoropiperidin-4-yl)-2H-indazol-5-yl)-2,8-dimethylimidazo [1,2-b]pyridazine]
8 | 100 to 1000 | < 100 | Cc1cn2nc(-c3cc(F)c4nn(C5CCNC6(CC6)C5)cc4c3)cc(C)c2n1 (centres unmarked) [Compound 171, 6-[2-(4-azaspiro[2.5]octan-7-yl)-7-fluoro-indazol-5-yl]-2,8-dimethyl-imidazo[1,2-b]pyridazine]
9 | > 10000 | > 10000 | Cn1cc2cc(-c3ccc4cn(C5CCNCC5)nc4c3)cc(F)c2n1 [Compound 148, 7-fluoro-2-methyl-5-[2-(4-piperidyl)indazol-6-yl]indazole]
10 | 100 to 1000 | 100 to 1000 | Cc1nc2ccc(-c3cc(F)c4nn(C5CCNCC5)cc4c3)cc2o1 [Compound 135, 6-[7-fluoro-2-(4-piperidyl)indazol-5-yl]-2-methyl-1,3-benzoxazole]
11 | > 10000 | > 10000 | Cc1ncc2cc(-c3cc(F)c4nn(C5CCNCC5)cc4c3)ccc2n1 [Compound 165, 6-[7-fluoro-2-(4-piperidyl)indazol-5-yl]-2-methyl-quinazoline]
12 | 100 to 1000 | < 100 | CCN1CCC(n2cc3cc(-c4cc(C)c5nc(C)cn5n4)cc(F)c3n2)CC12CC2 (centres unmarked) [Compound 177, 6-[2-(4-ethyl-4-azaspiro[2.5]octan-7-yl)-7-fluoro-indazol-5-yl]-2,8-dimethyl-imidazo[1,2-b]pyridazine]
13 | 100 to 1000 | 100 to 1000 | CCN1CCC(n2cc3cc(-c4cc(F)c5nn(C)cc5c4)cc(F)c3n2)CC1 [Compound 104, 2-(1-ethyl-4-piperidyl)-7-fluoro-5-(7-fluoro-2-methyl-indazol-5-yl)indazole]
14 | 100 to 1000 | 100 to 1000 | Cn1cc2cc(-c3cc(F)c4nn(C5CCNCC5)cc4c3)ccc2n1 [Compound 145, 7-fluoro-5-(2-methylindazol-5-yl)-2-(4-piperidyl)indazole]
15 | 100 to 1000 | < 100 | Cc1cn2nc(-c3cc(F)c4nn(C5CCN(CC6CC6)C6(CC6)C5)cc4c3)cc(C)c2n1 (centres unmarked) [Compound 183, 6-[2-[4-(cyclopropylmethyl)-4-azaspiro[2.5]octan-7-yl]-7-fluoro-indazol-5-yl]-2,8-dimethyl-imidazo[1,2-b]pyridazine]
16 | 1000 to 10000 | 100 to 1000 | Cc1nc2c(C)c(O)c(-c3cc(F)c4nn(C5CCNCC5)cc4c3)cc2o1 [Compound 123, 6-[7-fluoro-2-(4-piperidyl)indazol-5-yl]-2,4-dimethyl-1,3-benzoxazol-5-ol]
17 | 1000 to 10000 | > 10000 | Cc1ccc2nc(-c3cc(F)c4nn(C5CCNCC5)cc4c3)ccc2n1 [Compound 157, 2-[7-fluoro-2-(4-piperidyl)indazol-5-yl]-6-methyl-1,5-naphthyridine]
18 | 1000 to 10000 | 1000 to 10000 | COc1cc(-c2cc3cn(C)nc3cc2O)nc2cn(C3CCNCC3)nc12 [Compound 140, 5-[7-methoxy-2-(4-piperidyl)pyrazolo[4,3-b]pyridin-5-yl]-2-methyl-indazol-6-ol]
19 | 100 to 1000 | < 100 | Cc1cn2nc(-c3cc4cn(C5CCNCC5)nc4cc3O)cc(C)c2n1 [Compound 154, 5-(2,8-dimethylimidazo[1,2-b]pyridazin-6-yl)-2-(piperidin-4-yl)-2H-indazol-6-ol]
20 | > 10000 | 1000 to 10000 | Cc1c(O)c(-c2cc(F)c3nn(C4CCNCC4)cc3c2)cc2cn(C)nc12 [Compound 126, 5-[7-fluoro-2-(4-piperidyl)indazol-5-yl]-2,7-dimethyl-indazol-6-ol]
21 | 100 to 1000 | 100 to 1000 | Cc1cn2nc(-c3cc(F)c4nn(C5CCNCC5F)cc4c3)cc(C)c2n1 (centres unmarked) [Compound 166, 6-[7-fluoro-2-(3-fluoro-4-piperidyl)indazol-5-yl]-2,8-dimethyl-imidazo [1,2-b]pyridazine]
22 | 100 to 1000 | < 100 | Cc1cn2nc(-c3cc(F)c4nn(CC5CCNCC5)cc4c3)cc(C)c2n1 [Compound 212, 6-[7-fluoro-2-(4-piperidylmethyl)indazol-5-yl]-2,8-dimethyl-imidazo[1,2-b]pyridazine]

Row | Structure (SMILES) | IC50 [1] [nM] | IC50 (Target C) [nM]
23 | Cc1cn2nc(-c3cc(F)c4nn(C5CCN(C6CCC6)C6(CC6)C5)cc4c3)cc(C)c2n1 (centres unmarked) [Compound 186, 6-[2-(4-cyclobutyl-4-azaspiro[2.5]octan-7-yl)-7-fluoro-indazol-5-yl]-2,8-dimethyl-imidazo[1,2-b]pyridazine] | 100 to 1000 | < 100
24 | Cc1cn2nc(-c3cc(F)c4nn(C5CCNCC5)cc4c3)cc(C)c2n1 [Compound 122, 6-(7-fluoro-2-(piperidin-4-yl)-2H-indazol-5-yl)-2,8-dimethylimidazo [1,2-b]pyridazine hydrochloride salt] | < 100 | < 100
25 | Cc1cn2nc(-c3cc(F)c4nn(C5CCN(CCO)CC5)cc4c3)cc(C)c2n1 [Compound 160, 2-[4-[5-(2,8-dimethylimidazo[1,2-b]pyridazin-6-yl)-7-fluoro-indazol-2-yl]-1-piperidyl]ethanol] | 100 to 1000 | < 100
